{"source": "paper PMC7747594", "about": "“Protease-activated receptor-2 ligands reveal orthosteric and allosteric mechanisms of receptor inhibition” (Communications Biology, 2020)", "key": {"[1]": {"target": "T1, PAR2 (Rattus norvegicus, UniProt Q63645)", "T1 construct": "from tissue; host or cells: hind paw of male Wistar rats, in vivo", "T1 sequence (Q63645 26-397)": "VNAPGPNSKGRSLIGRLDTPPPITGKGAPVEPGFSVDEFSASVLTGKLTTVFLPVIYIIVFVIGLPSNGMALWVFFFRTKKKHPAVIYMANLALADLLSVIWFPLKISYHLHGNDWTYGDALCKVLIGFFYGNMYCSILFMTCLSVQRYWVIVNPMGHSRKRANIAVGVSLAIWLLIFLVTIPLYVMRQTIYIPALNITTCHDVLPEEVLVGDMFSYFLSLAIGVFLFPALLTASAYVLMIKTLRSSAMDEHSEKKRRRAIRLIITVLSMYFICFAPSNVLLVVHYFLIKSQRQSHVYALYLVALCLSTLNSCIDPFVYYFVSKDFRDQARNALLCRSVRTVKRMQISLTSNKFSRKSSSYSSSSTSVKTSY", "assay": "PAR2 agonist (2f-LIGRLO-NH2)-induced rat paw oedema, paw swelling", "assay_type": "in vivo", "settings": "for reduction of paw swelling: Wistar rats; for % swelling: 2f-induced rat paw oedema, individual animals (Figure 5a); for paw swelling: AZ3451 10 mg kg^−1 s.c. 30 min before, AZ8838 10 mg kg^−1 p.o. 2 h before 2f-LIGRLO-NH2; for anti-inflammatory activity in vivo after oral delivery / anti-inflammatory activity in vivo after subcutaneous injection: rat paw oedema", "experimental": "Following Australian ethical standards, animals were air transported to the Institute for Bioengineering and Nanotechnology (University of Queensland, Australia). Animals were housed at room temperature and kept in 12 h light/dark cycles, with standard chow and water provided ad libitum, for at least a 48 h acclimatisation period before experiments. […] Saline only was given to sham paws. […] Control animals received either DMSO s.c. or 20% DMSO/80% olive oil via oral gavage. […] At the 30 min time point, a portion of animals was euthanised by CO2 inhalation and their paws collected for further analyses. All in vivo experimental procedures and animal handling were conducted with approval from the Animal Ethics Committee at the University of Queensland which follows NHMRC and ARRIVE guidelines. After experimentation, animals are humanely euthanized by CO2 inhalation as stipulated by the ethical agreements.\nExperimental results were expressed as mean ± s.e.m. Graphs were plotted and data analysed using GraphPad Prism7. Statistical differences were assessed using Student’s t-tests (two-tailed) for data sets of two, one-way ANOVA for data sets of three or more with Bonferroni post-hoc tests, or two-way repeated-measures ANOVA with Tukey post-hoc tests for temporal data sets, as appropriate. Significance was set at ^+p < 0.05, ^++p < 0.01, ^+++p < 0.001, ^++++p < 0.0001 compared to sham, and *p < 0.05, **p < 0.01, ***p < 0.001, ****p < 0.0001 compared to disease control."}, "[2]": {"tested_on": "PAR2[F154A], PAR2[G157C]", "assay": "Ca^2+ flux assay, inhibition of trypsin in 1321N1 cells transiently transfected with PAR2 [WT], [F154A] or [G157C]", "assay_type": "cell-based, human", "settings": "[F154A and G157C], monophasic", "experimental": "Cell culture reagents were purchased from ThermoFisher Scientific unless otherwise stated. The parental 1321N1 cell line was obtained from ECACC. 1321N1 cells, stably expressing the human PAR2 receptor, (1321N1-hPAR2) were routinely cultured in Dulbecco’s Modified Eagle Medium (DMEM) supplemented with GlutaMax-1 containing 10% fetal bovine serum (FBS) and G418 (600 µg ml^−1). U2OS cells, stably expressing human PAR2 (U2OS-hPAR2, 93-0235C3, DiscoverX/Eurofins) were routinely cultured in McCoy’s 5A media containing 10% FBS, G418 (500 µg ml^−1) and Hygromycin B (250 µg ml^−1). Rodent PAR2 was assessed in rat KNRK cells (ATCC) cultured in DMEM with 10% FBS supplemented with 2 mM L-Glutamine. Human PAR2 was assessed in HT-29 cells (ECACC) cultured in DMEM with 10% FBS supplemented with penicillin (50 U ml^−1) and streptomycin (50 µg ml^−1). […]\nFor evaluation of Ca^2+ mobilisation, 1321N1-hPAR2 cells were seeded in 384-well CellBIND plates (Corning) at 4000 cells per well in DMEM containing 10% FBS and incubated for 18–24 hours at 37 °C, 5% CO2 and 95% humidity. […] Inhibition of Ca^2+ release on rat PAR2 was measured in the same way using 10 000 KNRK cells per well seeded in poly-D-lysine coated 384-well plates (Greiner), 30 min preincubation with the compound before activation of PAR2 with EC80 of SLIGRL-NH2 (120 µM) and real-time detection of Ca^2+. […]"}}, "note": "“And” between values parts separate entries of the source, which are not always exact repeats. Identical values can stand only once.", "data": [{"molecule": "CCCc1cc(F)ccc1C(O)c1ncc[nH]1", "note": "(stereo not shown) [AZ8838]", "values": [{"measurement": "reduction of paw swelling", "setting": "[1]; 10 mg kg^−1 p.o. 2 h prior to 2f-LIGRLO-NH2 350 µg per paw", "result": 60, "unit": "%"}, {"measurement": "% swelling", "setting": "[1]; Time 0 h", "result": 0, "unit": "%"}, {"measurement": "% swelling", "setting": "[1]; Time 0.5 h", "result": "24.8579% and 43.6327% and 41.4698% and 6.42%"}, {"measurement": "% swelling", "setting": "[1]; Time 1 h", "result": "17.7725% and 33.5029% and 21.2259% and 5.253%"}, {"measurement": "% swelling", "setting": "[1]; Time 2 h", "result": "-0.8821% and 11.1837% and 14.1177% and -4.556%"}, {"measurement": "% swelling", "setting": "[1]; Time 4 h", "result": "-4.225% and 3.626% and 12.7121% and -4.201%"}, {"measurement": "paw swelling", "setting": "[1]", "result": "significantly reduced paw swelling"}, {"measurement": "anti-inflammatory activity in vivo after oral delivery", "setting": "[1]", "result": "anti-inflammatory in vivo"}, {"measurement": "anti-inflammatory activity in vivo after subcutaneous injection", "setting": "[1]", "result": "anti-inflammatory in vivo"}]}, {"molecule": "C[C@@H](C1CCCCC1)n1c(-c2cc3c(cc2Br)OCO3)nc2cc(C(=O)Nc3ccc(C#N)cc3)ccc21", "note": "[AZ3451]", "values": [{"measurement": "inhibition of trypsin-induced PAR2 activation at mutant receptors pIC50", "setting": "[2]", "result": 6}, {"measurement": "reduction of paw swelling", "setting": "[1]; 10 mg kg^−1 s.c. 30 min prior to 2f-LIGRLO-NH2 350 µg per paw", "result": 60, "unit": "%"}, {"measurement": "% swelling", "setting": "[1]; Time 0 h", "result": 0, "unit": "%"}, {"measurement": "% swelling", "setting": "[1]; Time 0.5 h", "result": "48.3188% and 41.0115% and 38.4554% and 0.2044%"}, {"measurement": "% swelling", "setting": "[1]; Time 1 h", "result": "31.4446% and 1.303% and 21.2807% and 5.312%"}, {"measurement": "% swelling", "setting": "[1]; Time 2 h", "result": "1.7017% and 2.985% and 4.564% and -2.962%"}, {"measurement": "% swelling", "setting": "[1]; Time 4 h", "result": "3.1932% and 1.708% and -5.029% and 2.557%"}, {"measurement": "paw swelling", "setting": "[1]", "result": "significantly reduced paw swelling"}, {"measurement": "anti-inflammatory activity in vivo after oral delivery", "setting": "[1]", "result": "not after oral delivery"}, {"measurement": "anti-inflammatory activity in vivo after subcutaneous injection", "setting": "[1]", "result": "active in vivo"}]}]}
